# Patent publication US20030143633A1, “Factors participating in degranulation of mast cells, dnas encoding the same, method of screening of these factors and the inhibitors” (priority 2000, published 2003)
# B1: mG#101: recombinant mouse first Rab protein, SEQ ID NO: 1 (protein)
# chain: MLLGDSGVGKTCFLIQFKDGAFLSGTFIATVGIDFRNKVVTVDGXRVKLQIWDTAGQERFRSVTHAYYRDAQALLLLYDITNKSSFDNIRAWLTEIHEYAQRDVVIMLLGNKADXSSERVIRSEDGETLAREYGVPFXETSAKTGMNVELAFLAIAKELKYRAGXQXDEPSFQIRDYVESQKKRSSCCSFV
# modifications: Mus musculus or Homo sapiens; (45) Ala or Val.
# B2: mG#102: recombinant mouse second Rab protein, SEQ ID NO: 4 (protein)
# chain: MQTPHKEHLYKLLVIGDLGVGKTSIIKRYVHQNFSSHYRATIGVDFALKVLHWDPETVVRLQLWDIAGQERFGNMTRVYYREAMGAFIVFDVTRPATFEAVAKWKNDLDSKLXLPNGKPVSVVLLANKCDQGKDVLMNNGLKMDQFCKEHGFVGWFETSAKENINIDEASRCLVKHILANECDLXESIEPDXVKPHLTSXKVXSCSGCAKS
# modifications: Mus musculus or Homo sapiens; (113) Thr or Ser.
# Key:
# VT strain [1] = assay: Two-hybrid positive control recombinant yeast VT strain growth (nonspecific effect control); type: cell-based, S. cerevisiae
# [2] = tested on: interaction between mG#102 and mA#10283; assay: Two-hybrid recombinant yeast #102 strain growth in histidine defective medium; type: cell-based, S. cerevisiae; conditions: for specific suppression of #102 strain growth (in words): compared with VT strain; for Suppression (% control) of growth of yeast strain, #102 strain: turbidity 590 nm, 18-20 hr
# Description: (§1) Two expression vectors respectively incorporating mG#102 in pAS2-1 vector and mA#10283 in pACT2 vector were introduced into S. cerevisiae CG1945 strain to give a recombinant yeast #102 strain (see Example 3). As a control, recombinant yeast VT strain into which plasmid for positive control (pVA3-1, pTD1-1) of MATCHMAKER Two-Hybrid System 2 had been introduced was prepared. The culture media of #102 strain and VT strain that reached confluent by shake culture overnight at 30° C. in an SD medium supplemented with histidine were diluted 200-fold with a fresh histidine defective SD medium (containing 1 mM 3-AT) and dispensed to a 96 well plate by 0.09 ml/well. A PBS solution containing a compound whose effect is desired to be examined was added to each well, PBS was added to the well of 100% control, and 1M 3-AT-containing PBS solution was added to the well of 0% control respectively in a volume of 0.01 ml/well and mixed by a plate shaker MicroMixer E-36 (manufactured by TAITEC). Then, after static culture at 30° C. for 18-20 hr, culture media were suspended in a plate shaker, and turbidity (absorbance at 590 nm) was measured with a 96 well plate spectrophotometer Multiskan BICHROMATIC (manufactured by Labsystems) The data of the turbidity measured were evaluated on conversion to % control based on the turbidity data of 100% control and 0% control. When a common effect appears between the #102 strain and the VT strain, it was considered a nonspecific effect on the two-hybrid system rather than an effect on the interaction between mG#102 and mA#10283.
# (§2) Using the system shown in Example 7, 0.09 ml each of #102 strain yeast or VT strain yeast (control) was placed in each well of a 96 well plate, and a PBS solution containing a particular compound which is unknown as to its effect on the interaction between mG#102 and mA#10283 was added by 0.01 ml, which was followed by culture at 30° C. for 18-20 hr. Then, the culture medium was suspended in a plate shaker and the turbidity (absorbance at 590 nm) was measured with a 96 well plate absorbance meter. The turbidity of the well to which PBS solution without the compound was added was taken as 100% control and the turbidity of the well to which PBS solution containing 3-AT (final concentration 100 mM) instead of the compound was added was taken as 0% control, and the effect of the compound was evaluated by conversion to percentage.
# [3] = tested on: interaction between mG#102 and mA#10283; assay: as above; type: cell-based, S. cerevisiae; conditions: histidine defective SD medium
# [4] = tested on: mouse bone marrow-derived mast cells (BMMC); assay: IgE/DNP-HSA antigen-induced degranulation of BMMC (hexosaminidase release); type: cell-based; conditions: for Suppression (% control) of degranulation of mast cell: fluorescence of control group without compound = 100%
# Description: BMMC prepared by the method shown in Example 1 was suspended in 10% FBS-containing RPMI at a concentration of 3×10^6/ml. To this BMMC was added a mouse monoclonal anti-DNP IgE antibody (manufactured by YAMASA) at 3 μg/ml, and the mixture was stood at room temperature for 30 min. Then, BMMC treated with an IgE antibody was washed with buffer A (133 mM NaCl, 5 mM KCl, 0.9 mM NaH2PO4, 8 mM glucose, 1 mg/ml BSA, 0.01 mM CaCl2, 20 mM HEPES, pH 7.4) and suspended in buffer A containing 1 mM CaCl2 at a concentration of 3×10^6/ml. This BMMC suspension (0.1 ml/well) was added in a 96 well multiplate and a solution of the compound to be examined (0.05 ml/well) and a DNP-HSA (manufactured by Sigma) solution (40 ng/ml, 0.05 ml/well) as an antigen were added. After standing at room temperature for 30 min, the mixture was centrifuged at 1000 rpm for 5 min and the supernatant was recovered for the 96 well multiplate by 0.05 ml/well. To this supernatant was added a 4-methylumbelliferyl-2-acetamide-2-deoxy-β-D-glucopyranoside (manufactured by Funakoshi Co., Ltd., substrate of hexosaminidase) solution (1 mM; in 0.2 M citrate buffer (pH 4.5)) at 0.05 ml/well. After standing at 37° C. for 90 min, 1M Tris solution (0.15 ml) was added to stop the reaction, and the amount of fluorescence in each well was measured by fluoroscan (manufactured by Labo Systems). The suppressive effect of the compound on the degranulation of BMMC was calculated based on the amount of fluorescence in the control group free of addition of the compound as 100%. As a control compound, tranilast was used.
# VT strain [5] = assay: Two-hybrid positive control recombinant yeast VT strain growth (nonspecific effect control); type: cell-based, S. cerevisiae; conditions: turbidity 590 nm, 18-20 hr
# Description: as §1, §2
# BMMC = BMMC digitonin degranulation system (histamine release); type: cell-based, mouse; conditions: protein added to digitonin-permeabilised BMMC, CaCl2 stimulation, histamine RIA
# Description: The recombinant protein was added to a BMMC digitonin degranulation system to examine the effect. BMMC was washed twice with a buffer having the following composition to give a suspension at 2×10^6 cells/ml and dispensed to a 96-well U-bottom plate by 0.05 ml/well. Then, mG#101 or mG#102 recombinant protein (0.05 ml/well) was added. Furthermore, 4.5 μM digitonin was added by 0.05 ml/well and the plate was stood at room temperature for 5 min. Thereafter 4 mM CaCl2 was added by 0.05 ml/well and the plate was stood at room temperature for 10 min. After standing, the concentration of histamine liberated in the supernatant was determined by a histamine RIA kit (Eiken Chemical Co., Ltd.). buffer composition:
# The recombinant protein was added to the digitonin degranulation system (see Example 5) and the effect was examined.
# [6] = compound concentration 0.3 μg/ml
# [7] = compound concentration 10 μg/ml
# [8] = compound concentration 30 μg/ml
Molecule,Suppression (% control) of degranulation of mast cell ([4]; concentration 1 μg/ml) [% control],Suppression (% control) of degranulation of mast cell ([4]; concentration 3 μg/ml) [% control],Suppression (% control) of degranulation of mast cell ([4]; concentration 10 μg/ml) [% control],Suppression (% control) of degranulation of mast cell ([4]; concentration 30 μg/ml) [% control],Suppression (% control) of degranulation of mast cell ([4]; concentration 100 μg/ml) [% control],specific suppression of #102 strain growth (in words) [2],"Suppression (% control) of growth of yeast strain, #102 strain ([2]; compound concentration 1 μg/ml) [% control]","Suppression (% control) of growth of yeast strain, #102 strain ([2]; compound concentration 3 μg/ml) [% control]","Suppression (% control) of growth of yeast strain, #102 strain [2, 7] [% control]","Suppression (% control) of growth of yeast strain, VT strain (VT strain [5]; compound concentration 1 μg/ml) [% control]","Suppression (% control) of growth of yeast strain, VT strain (VT strain [5]; compound concentration 3 μg/ml) [% control]","Suppression (% control) of growth of yeast strain, VT strain (VT strain [5]; [7]) [% control]",effect of recombinant protein on degranulation (in words) (BMMC),also measured
"Nc1nc[nH]n1 [Formula 3-AT, 3-amino-1,2,4-triazole]",–,–,–,–,–,–,–,–,–,–,–,–,–,"growth of recombinant yeast strain with 100 mM 3-AT (in words) (VT strain [1]; 100 mM 3-AT): neither recombinant yeast strain could grow; concentration of 3-AT wherein the recombinant yeast strain grows in a reporter gene (histidine synthase)-dependent manner (VT strain [1]; histidine defective SD medium): 1 to 10 mM; growth of recombinant yeast strain with 100 mM 3-AT (in words) ([2]; #102 strain, 100 mM 3-AT): neither recombinant yeast strain could grow; concentration of 3-AT wherein the recombinant yeast strain grows in a reporter gene (histidine synthase)-dependent manner [3]: 1 to 10 mM"
"CC(C)=NNc1nc(-c2ccc(-c3ccccc3)cc2)cs1 [Formula [III], acetone-4-(4-phenyl)phenyl-1,3-thiazol-2-yl-hydrazone]",102,87,39,20,6,specifically suppressed #1022 strain in a dose-dependent manner,57,4,1,85,77,63,–,"suppression of degranulation of mast cells (in words) [4]: suppressed degranulation of mast cells in a dose-dependent manner; Suppression (% control) of growth of yeast strain, #102 strain [2, 6]: 99 % control; Suppression (% control) of growth of yeast strain, VT strain (VT strain [5]; [6]): 99 % control"
"O=C(N/N=C/c1ccc([N+](=O)[O-])o1)c1ccccc1Br [Formula [IV], 5-nitro-2-furaldehyde-2-brombenzoylhydrazne]",–,–,–,–,–,specifically suppressed #1022 strain in a dose-dependent manner,99,99,36,102,102,98,–,"Suppression (% control) of growth of yeast strain, #102 strain [2, 8]: −2 % control; Suppression (% control) of growth of yeast strain, VT strain (VT strain [5]; [8]): 63 % control"
"COc1ccc(/C=C/C(=O)Nc2ccccc2C(=O)O)cc1OC [tranilast, reference compound]",96,90,78,52,22,–,–,–,–,–,–,–,–,–
B1,–,–,–,–,–,–,–,–,–,–,–,–,inhibited degranulation in a concentration dependent manner,–
B2,–,–,–,–,–,–,–,–,–,–,–,–,inhibited degranulation in a concentration dependent manner,–
